# Source: paper PMC10764104, “Discovery of Molecular Glue Degraders via Isogenic Morphological Profiling” (ACS Chemical Biology, 2023)
# Legend:
# [1] = target: T1, recombinant DDB1-CRBN (Homo sapiens, UniProt Q96SW2); test: Fluorescence polarization-based competition assay for CRBN binding; details: 200 nM CRBN-DDB1, 20 nM pomalidomide-fluorescein tracer 16, triplicates; read-out: FP_CRBN_binding: CRBN binding affinity, EC50
# T1 construct: His; made in house; host or cells: High Five insect cells (baculovirus made and propagated in SF9 cells)
# [2] = system: RKO WT; test: Quantitative expression proteomics to identify degradation targets; type: cell-based, human; details: 10 μM, 16 h, n = 2, and adjusted p < 0.01, over 8000 proteins quantified
# Source text: We selected FL2-14 for target elucidation (circled in black in Figure 2E) based on three criteria (Table S4). First, FL2-14 has low cosine similarity with all of the CRBN-dependent controls (i.e., no thick blue edges). […] Third, it has a unique chemical structure, being the only CRBN binder with the tail group modification 14 predicted to have CRBN-dependent bioactivity (Figure 3A). To elucidate the target for FL2-14, we performed quantitative proteomics to evaluate changes in protein abundances upon treatment with FL2-14. […]
# Figure 3 FL2-14 is a selective GSPT2 molecular glue degrader. […] (B) DMSO-normalized quantitative proteomics after 16 h of treatment with FL2-14 (10 μM) in RKO WT (n = 2). […]
# of the sample sizes of (i.e. number of images in) RKO CRBN OE and RKO CRBN KO data. We, thus, normalized the U scores calculated to allow us to compare U scores for different treatments with varying sample sizes: […]
# Comparing the treatment‐centric features of compounds predicted to have CRBN‐dependent bioactivity. […] We then retrieve the matrix of Kendall’s τ‐b correlation coefficients calculated per feature for each compound. […]
# We then visualized the cosine similarities calculated on a network graph with NetworkX (https://networkx.org, version 3.1), using the spring_layout() with seed set to 500 and iterations set to 200. […]
smiles,measurement,setting,value
CN(Cc1ncc(C2CC2)o1)S(=O)(=O)Oc1ccc(Nc2ccc3c(c2)C(=O)N(C2CCC(=O)NC2=O)C3=O)cc1 (centres unmarked) [FL2-14],EC50,[1],991 nM
same,proteins significantly downregulated (quantitative proteomics),[2],"GSPT2, FAM83F, and ZBTB39"
